Results from patent publication US6800659B2, “Compounds for modulating cell proliferation” (HSC Research and Development Limited Partnership, priority 2000, dated 2004).

How the values were obtained:
[1] = tested on: Philadelphia positive acute lymphoblastic leukemia (Ph+ ALL) cells; experiment: Colony growth of Philadelphia positive ALL cells in methylcellulose culture; assay type: cell-based, human
Description: (§1) Ph+ ALL cells were plated in 1 ml volumes, in the absence of exogenous growth factors, into 35 mm petri dishes (Nunc, Gibco) containing alpha MEM (Gibco) plus 10% FCS (Cansera Rexdale, ON.) in 0.9% (vol/vol) methylcellulose (Fluka, Switzerland) with the indicated concentrations of CR4. Cultures were set at 37° C., 5% CO2 in a humidified atmosphere. Colonies consisting of more than 20 cells were counted at 12 days or earlier using an inverted microscope.
as §1, with “ALL” for “Ph+ ALL”, “20%” for “10%”, “and” for “with”, “compound” for “CR4.”, “atmosphere” for “atmosphere.”
as §1, with “ALL” for “Ph+ ALL”, “20%” for “10%”, “ON)” for “ON.)”, “0.90%” for “0.9%”, “and” for “with”, “compound.” for “CR4.”
as §1, with “ALL” for “Ph+ ALL”, “20%” for “10%”, “and” for “with”, “CR24.” for “CR4.”, “9” for “12”
as §1, with “ALL” for “Ph+ ALL”, “20%” for “10%”, “and” for “with”, “CR19.” for “CR4.”, “9” for “12”

[2] = tested on: Ly-MN lymphoma cells; experiment: Colony growth of Ly-MN lymphoma cells in methylcellulose culture; assay type: cell-based; conditions: colonies at 5 days (FIG. 5)
Description: as §1, with “Ly-MN” for “Ph+ ALL”, “IMDM (OCl, Toronto)” for “alpha MEM (Gibco)”, “20% human cord blood plasma” for “10% FCS (Cansera Rexdale, ON.)”, “and” for “with”, “5” for “12”

[3] = tested on: OCl-LY2 lymphoma cells; experiment: Colony growth of OCl-LY2 lymphoma cells in methylcellulose culture; assay type: cell-based; conditions: colonies at 5 days (FIG. 7)
Description: as §1, with “OCl-LY2” for “Ph+ ALL”, “IMDM (OCl, Toronto)” for “alpha MEM (Gibco)”, “20% human cord blood plasma” for “10% FCS (Cansera Rexdale, ON.)”, “and” for “with”, “doses” for “concentrations”, “5” for “12”

N#C/C(=C\C=C\c1ccc(O)c(O)c1)C(=O)NCc1ccccc1 [CR4, (E,E)-2-(benzylaminocarbonyl)-3-(3,4-dihydroxystyryl)acrylonitrile]
wipeout of bcr-abl transformed Philadelphia positive cells ([1]; concentrations as low as 40 nM): > 90%
inhibition of Ph+ ALL cell proliferation and survival ([1]; low nanomolar doses (35-100), colonies at 12 days (FIG. 2)): significant inhibition
inhibition of cell proliferation and survival ([2]; by 2.5 μM): inhibition
inhibition of cell proliferation and survival ([2]; nanomolar doses): significantly inhibited
inhibition at 2.5 µM ([3]; 120 h, 2.5 μM, read-out: inhibition of cell proliferation and survival): 90%
inhibition of cell proliferation and survival ([3]; high nanomolar to low micromolar doses): significantly inhibited
